Our source for the inhibition in vivo and ED50 values is patent publication US8815852B2, “Carbamoyloxy arylalkan arylpiperazine analgesics” (SK Biopharmaceuticals Co., Ltd., priority 2007, dated 2014).

The subject of the first test is male ICR mouse. Description: Acetic acid-induced writhing test in mouse. The class given is in vivo. Particulars: Mus musculus, po, 1 h, at 10 po (method: 10 mg/kg oral, 1 hour before acetic acid); read-out: AA Writhing: Suppression ratio of Pain response. On the procedure: 2. Acetic Acid-Induced Writhing Test in Mouse
An acetic acid-induced writhing test is one of models for measuring an analgesic effect of drugs. A test material dissolved in a suitable vehicle was orally administered to a male ICR mouse weighing 30 to 35 g at an amount of 10 mg/kg. After 1 hour of the oral administration, […] of an aqueous 0.8% acetic acid solution was intraperitoneally injected into the male ICR mouse to induce the abdominal pain of the male ICR mouse. Right after the administration of acetic acid, the male ICR mouse was put into an empty cage, and the number of writhing behaviors of the mice was counted for 10 minutes. The term “writhing represents a reflex action in which the mouse overtly extends its abdomen by stretching its hind legs due to the abdominal pain. The analgesic effect of the test material is represented by the ‘suppression ratio of pain response’ {[(Writhing number of Vehicle-administered group−Writhing number of Test material-administered group)/(Writhing number of Vehicle-administered group)]×100%} or 50% of Effective amount (ED50 (median effective dose); an amount of test material that is required to suppress 50% of pain behaviors) of Test material. The ED50 (median effective dose) was determined by calculating the suppression ratio of pain response in at least three doses of test materials and subjecting to the linear regression.
(An intraperitoneal irritant provokes the stretching counted in writhing tests.)
In the case of `NC(=O)OC(CCN1CCN(c2ccc3c(c2)OCCO3)CC1)c1ccccc1` (stereo not shown) [Example 11, Carbamic acid 3-[4-(2,3-dihydro-benzo[1,4]dioxin-6-yl)-piperazin-1-yl]-1-phenyl-propyl ester], the inhibition in vivo at 10 mg/kg is 48%.
On the same count and under the same terms, next, `NC(=O)OC(CCN1CCN(c2ccc(OC(F)(F)F)cc2)CC1)c1ccccc1` (stereo not shown) [Example 12, Carbamic acid 1-phenyl-3-[4-(4-trifluoromethoxy-phenyl)-piperazin-1-yl]-propyl ester]: 18%; `Cc1ccc(N2CCN(CCC(OC(N)=O)c3ccccc3)CC2)c(C)c1` (stereo not shown) [Example 13, Carbamic acid 3-[4-(2,4-dimethyl-phenyl)-piperazin-1-yl]-1-phenyl-propyl ester]: 34%.
For the molecule `COc1ccc(N2CCN(CCC(OC(N)=O)c3ccccc3)CC2)c(OC)c1` (stereo not shown) [Example 17, Carbamic acid 3-[4-(2,4-dimethoxy-phenyl)-piperazin-1-yl]-1-phenyl-propyl ester], the inhibition in vivo at 10 mg/kg amounted to 19%.
Turning to `NC(=O)OC(CCN1CCN(c2ccc(Cl)c(C(F)(F)F)c2)CC1)c1ccccc1` (stereo not shown) [Example 18, Carbamic acid 3-[4-(4-chloro-3-trifluoromethyl-phenyl)-piperazin-1-yl]-1-phenyl-propyl ester], the inhibition in vivo at 10 mg/kg amounted to 52%.
For the molecule `Cc1cccc(C)c1N1CCN(CCC(OC(N)=O)c2ccccc2)CC1` (stereo not shown) [Example 19, Carbamic acid 3-[4-(2,6-dimethyl-phenyl)-piperazin-1-yl]-1-phenyl-propyl ester], the inhibition in vivo at 10 mg/kg was found to be 48%.
Take `NC(=O)OC(CCN1CCN(c2ccccc2O)CC1)c1ccccc1` (stereo not shown) [Example 23, Carbamic acid 3-[4-(2-hydroxy-phenyl)-piperazin-1-yl]-1-phenyl-propyl ester]: the inhibition in vivo at 10 mg/kg was found to be 37%.
As for `Cc1ccc(N2CCN(CCC(OC(N)=O)c3ccccc3)CC2)cc1C` (stereo not shown) [Example 29, Carbamic acid 3-[4-(3,4-dimethyl-phenyl)-piperazin-1-yl]-1-phenyl-propyl ester], the inhibition in vivo at 10 mg/kg was found to be 99%.
On to `NC(=O)OC(CCN1CCN(c2ccc3c(c2)OCO3)CC1)c1ccccc1` (stereo not shown) [Example 30, Carbamic acid 3-(4-benzo[1,3]dioxol-5-yl-piperazin-1-yl)-1-phenyl-propyl ester], for which the inhibition in vivo at 10 mg/kg stood at 93%.
Still for that read-out and setting: next, `NC(=O)OC(CCN1CCN(c2ccc(Cl)c(Cl)c2)CC1)c1ccccc1` (stereo not shown) [Example 31, Carbamic acid 3-[4-(3,4-dichloro-phenyl)-piperazin-1-yl]-1-phenyl-propyl ester]: 85%; `COc1ccc(Cl)cc1N1CCN(CCC(OC(N)=O)c2ccccc2)CC1` (stereo not shown) [Example 32, Carbamic acid 3-[4-(5-chloro-2-methoxy-phenyl)-piperazin-1-yl]-1-phenyl-propyl ester]: 23%.
On to `COc1cc(OC)cc(N2CCN(CCC(OC(N)=O)c3ccccc3)CC2)c1` (stereo not shown) [Example 33, Carbamic acid 3-[4-(3,5-dimethoxy-phenyl)-piperazin-1-yl]-1-phenyl-propyl ester], for which the inhibition in vivo at 10 mg/kg was 13%.
Take `NC(=O)OC(CCN1CCN(c2ncccn2)CC1)c1ccccc1` (stereo not shown) [Example 34, Carbamic acid 1-phenyl-3-(4-pyrimidin-2-yl-piperazin-1-yl)-propyl ester]: the inhibition in vivo at 10 mg/kg was 21%.
Regarding `NC(=O)OC(CCN1CCN(c2ccc(C(F)(F)F)cc2[N+](=O)[O-])CC1)c1ccccc1` (stereo not shown) [Example 35, Carbamic acid 3-[4-(2-nitro-4-trifluoromethyl-phenyl)-piperazin-1-yl]-1-phenyl-propyl ester], the inhibition in vivo at 10 mg/kg came to 50%.
Consider `COc1ccc(N2CCN(CCC(OC(N)=O)c3ccc([N+](=O)[O-])cc3)CC2)cc1` (stereo not shown) [Example 44, Carbamic acid 3-[4-(4-methoxy-phenyl)-piperazin-1-yl]-1-(4-nitro-phenyl)-propyl ester], for which the inhibition in vivo at 10 mg/kg was determined as 64%.
Same read-out and setting: the result for `COc1ccc(N2CCN(CCC(OC(N)=O)c3cccc(Cl)c3)CC2)cc1` (stereo not shown) [Example 45, Carbamic acid 1-(3-chloro-phenyl)-3-[4-(4-methoxy-phenyl)-piperazin-1-yl]-propyl ester] reads 62%; that for `COc1ccc(N2CCN(CCC(OC(N)=O)c3ccccc3F)CC2)cc1` (stereo not shown) [Example 46, Carbamic acid 1-(2-fluoro-phenyl)-3-[4-(4-methoxy-phenyl)-piperazin-1-yl]-propyl ester], 42%; that for `COc1ccc(C(CCN2CCN(c3ccc(OC)cc3)CC2)OC(N)=O)cc1` (stereo not shown) [Example 47, Carbamic acid 1-(4-methoxy-phenyl)-3-[4-(4-methoxy-phenyl)-piperazin-1-yl]-propyl ester], 53%.
On the same count and under the same terms, the result for `COc1ccc(N2CCN(CCC(OC(N)=O)c3ccc(C(C)(C)C)cc3)CC2)cc1` (stereo not shown) [Example 48] reads 93%; that for `COc1ccc(N2CCN(CCC(OC(N)=O)c3ccc4ccccc4c3)CC2)cc1` (stereo not shown) [Example 49, Carbamic acid 3-[4-(4-methoxy-phenyl)-piperazin-1-yl]-1-naphthalen-2-yl-propyl ester], 64%.
On to `COc1ccc(N2CCN(CCC(OC(N)=O)c3ccccc3Cl)CC2)cc1` (stereo not shown) [Example 50, Carbamic acid 1-(2-chloro-phenyl)-3-[4-(4-methoxy-phenyl)-piperazin-1-yl]-propyl ester], for which the inhibition in vivo at 10 mg/kg amounted to 49%.
Consider `COc1ccc(N2CCN(CCC(OC(N)=O)c3ccccc3C(F)(F)F)CC2)cc1` (stereo not shown) [Example 51, Carbamic acid 3-[4-(4-methoxy-phenyl)-piperazin-1-yl]-1-(2-trifluoromethyl-phenyl)-propyl ester], for which the inhibition in vivo at 10 mg/kg turned out to be 95%.
Still for that read-out and setting: the result for `COc1ccc(N2CCN(CCC(OC(N)=O)c3ccc(F)c(F)c3)CC2)cc1` (stereo not shown) [Example 52, Carbamic acid 1-(3,4-difluoro-phenyl)-3-[4-(4-methoxy-phenyl)-piperazin-1-yl]-propyl ester] reads 61%; that for `COc1ccc(N2CCN(CCC(OC(N)=O)c3cccc(F)c3)CC2)cc1` (stereo not shown) [Example 53, Carbamic acid 1-(3-fluoro-phenyl)-3-[4-(4-methoxy-phenyl)-piperazin-1-yl]-propyl ester], 57%.
The same measure, in the same setting: next, `COc1ccc(N2CCN(CCC(OC(N)=O)c3cccc(OC)c3)CC2)cc1` (stereo not shown) [Example 54, Carbamic acid 1-(3-methoxy-phenyl)-3-[4-(4-methoxy-phenyl)-piperazin-1-yl]-propyl ester]: 69%; `COc1ccc(N2CCN(CCC(OC(N)=O)c3cccc4ccccc34)CC2)cc1` (stereo not shown) [Example 55, Carbamic acid 3-[4-(4-methoxy-phenyl)-piperazin-1-yl]-1-naphthalen-1-yl-propyl ester]: 16%.

Staying with this test, now noted: Mus musculus; ip; unit not given (method doses in mg/kg); read-out: AA Writhing: ED50.
In general, ED50 refers to the midpoint of the dose-response relation. On to `Cc1cccc(N2CCN(CCC(OC(N)=O)c3ccccc3)CC2)c1` (stereo not shown) [Example 24, Carbamic acid 1-phenyl-3-(4-m-tolylpiperazin-1-yl)-propyl ester], for which the ED50 came to 0.81 mg/kg.
In the case of `NC(=O)OC(CCN1CCN(c2ccc(C(F)(F)F)cc2)CC1)c1ccccc1` (stereo not shown) [Example 40, Carbamic acid 1-phenyl-3-[4-(4-trifluoromethyl-phenyl)-piperazin-1-yl]-propyl ester], the ED50 is 1.64 mg/kg.
